In patent publication US20050112573A1, “Method of detecting toxic substance” (priority 2001, published 2005):

Tested on: yeast genes (level of expressed mRNA)
Experiment: DNA chip analysis of expressed mRNA of yeast genes after 2 h culture with a toxic chemical substance
Type: cell-based, Saccharomyces cerevisiae S288C
Conditions: for The level of expressed mRNA in the presence of chemical substance/ (ratio to absence of chemical substance): stress protein genes, DNA chip
Summary of the method: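 S. cerevisiae S288C in YPD at 25 °C was exposed at log phase for 2 h to a growth-inhibiting, non-lethal concentration of the chemical. Poly(A) mRNA was reverse-transcribed with Cy3- or Cy5-dUTP and hybridized to a whole-genome yeast DNA chip (65 °C, >12 h). Values are fluorescence ratios versus untreated cells.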

C[S+](C)[O-] [(15), dimethylsulfoxide]
The level of expressed mRNA in the presence of chemical substance/ in its absence, gene YDL078C (yeast gene YDL078C, ratio of DNA chip fluorescence intensity to that without chemical substance): 0.5 | The level of expressed mRNA in the presence of chemical substance/ (in its absence), gene YDL215C (yeast gene YDL215C, ratio of DNA chip fluorescence intensity to that without chemical substance): 1.1 | The level of expressed mRNA in the presence of chemical substance/The level of expressed mRNA in the absence of chemical substance (yeast gene YDL238C): 1.3 | The level of expressed mRNA in the presence of chemical substance/The level of expressed mRNA in the absence of chemical substance (yeast gene YDR055W): 5.7 | The level of expressed mRNA in the presence of chemical substance/ (in its absence), gene YDR073W (yeast gene YDR073W, ratio of DNA chip fluorescence intensity to that without chemical substance): 0.8 | The level of expressed mRNA in the presence of chemical substance/ in its absence, gene YDR079W (yeast gene YDR079W, energy system protein genes, 2 h culture with the chemical, ratio to control without chemical): 0.6 | The level of expressed mRNA in the presence of chemical substance/ (ratio to absence), gene YDR079W (yeast gene YDR079W, mitochondria-located protein genes, 2 h culture with chemical): 0.6 | The level of expressed mRNA in the presence of chemical substance/The level of expressed mRNA in the absence of chemical substance (yeast gene YDR084C): 3.9 | The level of expressed mRNA in the presence of chemical substance/The level of expressed mRNA in the absence of chemical substance (yeast gene YDR085C): 3.1 | The level of expressed mRNA in the presence of chemical substance/The level of expressed mRNA in the absence of chemical substance (yeast gene YDR104C): 1.4 | The level of expressed mRNA in the presence of chemical substance/The level of expressed mRNA in the absence of chemical substance (yeast gene YDR115W): 0.8 | The level of expressed mRNA in the presence of chemical substance/The level of expressed mRNA in the absence of chemical substance (yeast gene YDR259C): 2.9 | The level of expressed mRNA in the presence of chemical substance/ (in its absence), gene YDR297W (yeast gene YDR297W, ratio of DNA chip fluorescence intensity to that without chemical substance): 1.4 | The level of expressed mRNA in the presence of chemical substance/The level of expressed mRNA in the absence of chemical substance (yeast gene YDR315C): 1.5 | The level of expressed mRNA in the presence of chemical substance/The level of expressed mRNA in the absence of chemical substance (yeast gene YDR358W): 0.9 | The level of expressed mRNA in the presence of chemical substance/ (ratio to absence), gene YDR377W (yeast gene YDR377W, mitochondria-located protein genes, 2 h culture with chemical): 0.6 | The level of expressed mRNA in the presence of chemical substance/ (in its absence), gene YDR387C (yeast gene YDR387C, ratio of DNA chip fluorescence intensity to that without chemical substance): 1.4 | The level of expressed mRNA in the presence of chemical substance/The level of expressed mRNA in the absence of chemical substance (yeast gene YDR388W): 2.6 | The level of expressed mRNA in the presence of chemical substance/The level of expressed mRNA in the absence of chemical substance (yeast gene YDR481C): 3.5 | The level of expressed mRNA in the presence of chemical substance/The level of expressed mRNA in the absence of chemical substance (yeast gene YDR510W): 2.2 | The level of expressed mRNA in the presence of chemical substance/ (ratio to absence of chemical substance) (yeast gene YEL039C): 0.4 | The level of expressed mRNA in the presence of chemical substance/The level of expressed mRNA in the absence of chemical substance (yeast gene YEL066W): 1.0 | The level of expressed mRNA in the presence of chemical substance/ (in its absence), gene YER015W (yeast gene YER015W, ratio of DNA chip fluorescence intensity to that without chemical substance): 0.8 | The level of expressed mRNA in the presence of chemical substance/The level of expressed mRNA in the absence of chemical substance (yeast gene YER039C): 1.2 | The level of expressed mRNA in the presence of chemical substance/ (ratio to absence of chemical substance) (yeast gene YER057C): 1.7 | The level of expressed mRNA in the presence of chemical substance/The level of expressed mRNA in the absence of chemical substance (yeast gene YER107C): 0.7 | The level of expressed mRNA in the presence of chemical substance/The level of expressed mRNA in the absence of chemical substance (yeast gene YER130C): 1.1 | The level of expressed mRNA in the presence of chemical substance/The level of expressed mRNA in the absence of chemical substance (yeast gene YFL028C): 0.8 | The level of expressed mRNA in the presence of chemical substance/The level of expressed mRNA in the absence of chemical substance (yeast gene YFL043C): 1.1 | The level of expressed mRNA in the presence of chemical substance/ (in its absence), gene YGL035C (yeast gene YGL035C, ratio of DNA chip fluorescence intensity to that without chemical substance): 1.0 | The level of expressed mRNA in the presence of chemical substance/ (in its absence), gene YGL115W (yeast gene YGL115W, ratio of DNA chip fluorescence intensity to that without chemical substance): 0.7 | The level of expressed mRNA in the presence of chemical substance/ (ratio to absence of chemical substance) (yeast gene YGL115W): 0.7 | The level of expressed mRNA in the presence of chemical substance/The level of expressed mRNA in the absence of chemical substance (yeast gene YGL158W): 2.3 | The level of expressed mRNA in the presence of chemical substance/ (ratio to absence), gene YGL187C (yeast gene YGL187C, mitochondria-located protein genes, 2 h culture with chemical): 0.3 | The level of expressed mRNA in the presence of chemical substance/ (in its absence), gene YGL205W (yeast gene YGL205W, ratio of DNA chip fluorescence intensity to that without chemical substance): 2.0 | The level of expressed mRNA in the presence of chemical substance/The level of expressed mRNA in the absence of chemical substance (yeast gene YGL229C): 0.2 | The level of expressed mRNA in the presence of chemical substance/ in its absence, gene YGR062C (yeast gene YGR062C, energy system protein genes, 2 h culture with the chemical, ratio to control without chemical): 0.5 | The level of expressed mRNA in the presence of chemical substance/ (ratio to absence), gene YGR062C (yeast gene YGR062C, mitochondria-located protein genes, 2 h culture with chemical): 0.5 | The level of expressed mRNA in the presence of chemical substance/ (in its absence), gene YGR096W (yeast gene YGR096W, ratio of DNA chip fluorescence intensity to that without chemical substance): 0.9 | The level of expressed mRNA in the presence of chemical substance/The level of expressed mRNA in the absence of chemical substance (yeast gene YGR136W): 2.6 | The level of expressed mRNA in the presence of chemical substance/The level of expressed mRNA in the absence of chemical substance (yeast gene YGR189C): 9.3 | The level of expressed mRNA in the presence of chemical substance/The level of expressed mRNA in the absence of chemical substance (yeast gene YGR213C): 6.5 | The level of expressed mRNA in the presence of chemical substance/The level of expressed mRNA in the absence of chemical substance (yeast gene YGR257C): 1.3 | The level of expressed mRNA in the presence of chemical substance/ (in its absence), gene YGR287C (yeast gene YGR287C, ratio of DNA chip fluorescence intensity to that without chemical substance): 2.3 | The level of expressed mRNA in the presence of chemical substance/ (in its absence), gene YGR288W (yeast gene YGR288W, ratio of DNA chip fluorescence intensity to that without chemical substance): 0.8 | The level of expressed mRNA in the presence of chemical substance/ (ratio to absence of chemical substance) (yeast gene YHL028W): 0.6 | The level of expressed mRNA in the presence of chemical substance/ (ratio to absence of chemical substance) (yeast gene YHL046C): 1.0 | The level of expressed mRNA in the presence of chemical substance/The level of expressed mRNA in the absence of chemical substance (yeast gene YHR004C): 1.2 | The level of expressed mRNA in the presence of chemical substance/The level of expressed mRNA in the absence of chemical substance (yeast gene YHR071W): 3.0 | The level of expressed mRNA in the presence of chemical substance/The level of expressed mRNA in the absence of chemical substance (yeast gene YHR139C): 1.9 | The level of expressed mRNA in the presence of chemical substance/The level of expressed mRNA in the absence of chemical substance (yeast gene YHR142W): 4.8 | The level of expressed mRNA in the presence of chemical substance/ (in its absence), gene YHR210C (yeast gene YHR210C, ratio of DNA chip fluorescence intensity to that without chemical substance): 0.5 | The level of expressed mRNA in the presence of chemical substance/ (in its absence), gene YIL006W (yeast gene YIL006W, ratio of DNA chip fluorescence intensity to that without chemical substance): 1.5 | The level of expressed mRNA in the presence of chemical substance/ (ratio to absence of chemical substance) (yeast gene YIL011W): 0.9 | The level of expressed mRNA in the presence of chemical substance/The level of expressed mRNA in the absence of chemical substance (yeast gene YIL123W): 4.8 | The level of expressed mRNA in the presence of chemical substance/The level of expressed mRNA in the absence of chemical substance (yeast gene YIL140W): 3.3 | The level of expressed mRNA in the presence of chemical substance/ (in its absence), gene YJL070C (yeast gene YJL070C, ratio of DNA chip fluorescence intensity to that without chemical substance): 3.5
